Source: PubChem BioAssay AID1918956 (Molecular Pharmacology Branch, DTP, NCI, 2023)

Tested on: OVCAR-5 complex spheroids, viability
Test: Anticancer human tumor OVCAR-5 cell line growth inhibition;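 note: spheroids exposed to agents for seven days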;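 for viability, T/C: 100% = DMSO vehicle control wells viability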
Conditions: for IC50: curve of first compound; for viability, T/C: stronger effect = lower value
In short: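 Complex spheroids of tumor cells with HUVEC and human MSCs, exposed to iadademstat combined with other agents. Each agent tested in half-log steps from near clinical Cmax (else 10 microM top), DMSO ≤0.25%.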

[1] = second compound 0.1 µM, first compound 0.0316 µM
[2] = second compound 0.1 µM, first compound 0.1 µM
[3] = second compound 0.1 µM, first compound 0.316 µM
[4] = second compound 0.1 µM, first compound 1 µM
[5] = second compound 0.1 µM, first compound 3.16 µM
[6] = second compound 0.1 µM, first compound 10 µM
[7] = second compound 0.316 µM, first compound 0.0316 µM
[8] = second compound 0.316 µM, first compound 0.1 µM
[9] = second compound 0.316 µM, first compound 0.316 µM
[10] = second compound 0.316 µM, first compound 1 µM
[11] = second compound 0.316 µM, first compound 3.16 µM
[12] = second compound 0.316 µM, first compound 10 µM
[13] = second compound 1 µM, first compound 0.0316 µM
[14] = second compound 1 µM, first compound 0.1 µM
[15] = second compound 1 µM, first compound 0.316 µM
[16] = second compound 1 µM, first compound 1 µM
[17] = second compound 1 µM, first compound 3.16 µM
[18] = second compound 1 µM, first compound 10 µM
[19] = second compound 3.16 µM, first compound 0.0316 µM
[20] = second compound 3.16 µM, first compound 0.1 µM
[21] = second compound 3.16 µM, first compound 0.316 µM
[22] = second compound 3.16 µM, first compound 1 µM
[23] = second compound 3.16 µM, first compound 3.16 µM
[24] = second compound 3.16 µM, first compound 10 µM
[25] = second compound 10 µM, first compound 0.0316 µM
[26] = second compound 10 µM, first compound 0.1 µM
[27] = second compound 10 µM, first compound 0.316 µM
[28] = second compound 10 µM, first compound 1 µM
[29] = second compound 10 µM, first compound 3.16 µM
[30] = second compound 10 µM, first compound 10 µM
[31] = second compound 0.1 µM, first compound 0.00949 µM
[32] = second compound 0.1 µM, first compound 0.03 µM
[33] = second compound 0.1 µM, first compound 0.0949 µM
[34] = second compound 0.1 µM, first compound 0.3 µM
[35] = second compound 0.316 µM, first compound 0.00949 µM
[36] = second compound 0.316 µM, first compound 0.03 µM
[37] = second compound 0.316 µM, first compound 0.0949 µM
[38] = second compound 0.316 µM, first compound 0.3 µM
[39] = second compound 1 µM, first compound 0.00949 µM
[40] = second compound 1 µM, first compound 0.03 µM
[41] = second compound 1 µM, first compound 0.0949 µM
[42] = second compound 1 µM, first compound 0.3 µM
[43] = second compound 3.16 µM, first compound 0.00949 µM
[44] = second compound 3.16 µM, first compound 0.03 µM
[45] = second compound 3.16 µM, first compound 0.0949 µM
[46] = second compound 3.16 µM, first compound 0.3 µM
[47] = second compound 10 µM, first compound 0.00949 µM
[48] = second compound 10 µM, first compound 0.03 µM
[49] = second compound 10 µM, first compound 0.0949 µM
[50] = second compound 10 µM, first compound 0.3 µM

SMILES: CC1(C)CCC(CN2CCN(c3ccc(C(=O)NS(=O)(=O)c4ccc(NCC5CCOCC5)c([N+](=O)[O-])c4)c(Oc4cnc5[nH]ccc5c4)c3)CC2)=C(c2ccc(Cl)cc2)C1 + NC1CCC(NC2CC2c2ccccc2)CC1
- IC50 (second compound 0.1 µM): 7.15 µM
- IC50 (second compound 0.316 µM): 7.06 µM
- IC50 (second compound 1 µM): 6.81 µM
- IC50 (second compound 3.16 µM): 6.3 µM
- IC50 (second compound 10 µM): 5.48 µM
- viability, T/C [1]: 116%
- viability, T/C [2]: 97.5%
- viability, T/C [3]: 105%
- viability, T/C [4]: 98.9%
- viability, T/C [5]: 111%
- viability, T/C [6]: 27.1%
- viability, T/C [7]: 108%
- viability, T/C [8]: 97.6%
- viability, T/C [9]: 98.4%
- viability, T/C [10]: 108%
- viability, T/C [11]: 111%
- viability, T/C [12]: 26.2%
- viability, T/C [13]: 97.6%
- viability, T/C [14]: 91.5%
- viability, T/C [15]: 92.3%
- viability, T/C [16]: 101%
- viability, T/C [17]: 96.1%
- viability, T/C [18]: 27%
- viability, T/C [19]: 99.9%
- viability, T/C [20]: 106%
- viability, T/C [21]: 105%
- viability, T/C [22]: 104%
- viability, T/C [23]: 88.8%
- viability, T/C [24]: 23.8%
- viability, T/C [25]: 90.7%
- viability, T/C [26]: 93.3%
- viability, T/C [27]: 78.4%
- viability, T/C [28]: 91.7%
- viability, T/C [29]: 72.8%
- viability, T/C [30]: 24.9%

SMILES: CC1COCCN1c1cc(C2(S(C)(=N)=O)CC2)nc(-c2ccnc3[nH]ccc23)n1 (stereo not given) + NC1CCC(NC2CC2c2ccccc2)CC1
- IC50 (second compound 0.1 µM): 2.53 µM
- IC50 (second compound 0.316 µM): 2.62 µM
- IC50 (second compound 1 µM): 3.03 µM
- IC50 (second compound 3.16 µM): 2.7 µM
- IC50 (second compound 10 µM): 2.2 µM
- viability, T/C [1]: 102%
- viability, T/C [2]: 116%
- viability, T/C [3]: 97.7%
- viability, T/C [4]: 69.9%
- viability, T/C [5]: 47.4%
- viability, T/C [6]: 35.6%
- viability, T/C [7]: 108%
- viability, T/C [8]: 103%
- viability, T/C [9]: 94.7%
- viability, T/C [10]: 70%
- viability, T/C [11]: 45.8%
- viability, T/C [12]: 37.2%
- viability, T/C [13]: 109%
- viability, T/C [14]: 99.5%
- viability, T/C [15]: 97.8%
- viability, T/C [16]: 70.9%
- viability, T/C [17]: 50.5%
- viability, T/C [18]: 36%
- viability, T/C [19]: 104%
- viability, T/C [20]: 106%
- viability, T/C [21]: 97%
- viability, T/C [22]: 70.2%
- viability, T/C [23]: 48.4%
- viability, T/C [24]: 37.1%
- viability, T/C [25]: 84%
- viability, T/C [26]: 82.4%
- viability, T/C [27]: 79.2%
- viability, T/C [28]: 61.3%
- viability, T/C [29]: 45.3%
- viability, T/C [30]: 34%

SMILES: CCN(c1cc(-c2ccc(CN3CCOCC3)cc2)cc(C(=O)NCc2c(C)cc(C)[nH]c2=O)c1C)C1CCOCC1 + NC1CCC(NC2CC2c2ccccc2)CC1
- IC50 (second compound 0.1 µM): > 3 µM
- IC50 (second compound 0.316 µM): > 3 µM
- IC50 (second compound 1 µM): > 3 µM
- IC50 (second compound 3.16 µM): > 3 µM
- IC50 (second compound 10 µM): > 3 µM
- viability, T/C [31]: 116%
- viability, T/C [32]: 110%
- viability, T/C [33]: 96.1%
- viability, T/C [34]: 100%
- viability, T/C (second compound 0.1 µM, first compound 0.949 µM): 106%
- viability, T/C (second compound 0.1 µM, first compound 3 µM): 101%
- viability, T/C [35]: 109%
- viability, T/C [36]: 114%
- viability, T/C [37]: 101%
- viability, T/C [38]: 108%
- viability, T/C (second compound 0.316 µM, first compound 0.949 µM): 103%
- viability, T/C (second compound 0.316 µM, first compound 3 µM): 101%
- viability, T/C [39]: 92.4%
- viability, T/C [40]: 105%
- viability, T/C [41]: 90.6%
- viability, T/C [42]: 97%
- viability, T/C (second compound 1 µM, first compound 0.949 µM): 96.5%
- viability, T/C (second compound 1 µM, first compound 3 µM): 87.6%
- viability, T/C [43]: 96%
- viability, T/C [44]: 94.5%
- viability, T/C [45]: 94%
- viability, T/C [46]: 81.4%
- viability, T/C (second compound 3.16 µM, first compound 0.949 µM): 89.9%
- viability, T/C (second compound 3.16 µM, first compound 3 µM): 94.4%
- viability, T/C [47]: 88.2%
- viability, T/C [48]: 82.1%
- viability, T/C [49]: 93.7%
- viability, T/C [50]: 79.9%
- viability, T/C (second compound 10 µM, first compound 0.949 µM): 72.5%
- viability, T/C (second compound 10 µM, first compound 3 µM): 76.4%

SMILES: Nc1ncn(C2CC(O)C(CO)S2)c(=O)n1 (stereo not given) + NC1CCC(NC2CC2c2ccccc2)CC1
- IC50 (second compound 0.1 µM): > 0.3 µM
- IC50 (second compound 0.316 µM): > 0.3 µM
- IC50 (second compound 1 µM): > 0.3 µM
- IC50 (second compound 3.16 µM): > 0.3 µM
- IC50 (second compound 10 µM): > 0.3 µM
- viability, T/C (second compound 0.1 µM, first compound 0.000949 µM): 119%
- viability, T/C (second compound 0.1 µM, first compound 0.003 µM): 104%
- viability, T/C [31]: 111%
- viability, T/C [32]: 99.6%
- viability, T/C [33]: 92.2%
- viability, T/C [34]: 77%
- viability, T/C (second compound 0.316 µM, first compound 0.000949 µM): 112%
- viability, T/C (second compound 0.316 µM, first compound 0.003 µM): 102%
- viability, T/C [35]: 105%
- viability, T/C [36]: 94.6%
- viability, T/C [37]: 93.4%
- viability, T/C [38]: 80.2%
- viability, T/C (second compound 1 µM, first compound 0.000949 µM): 102%
- viability, T/C (second compound 1 µM, first compound 0.003 µM): 99.5%
- viability, T/C [39]: 101%
- viability, T/C [40]: 89.8%
- viability, T/C [41]: 93.9%
- viability, T/C [42]: 80.5%
- viability, T/C (second compound 3.16 µM, first compound 0.000949 µM): 92%
- viability, T/C (second compound 3.16 µM, first compound 0.003 µM): 101%
- viability, T/C [43]: 94.1%
- viability, T/C [44]: 96.9%
- viability, T/C [45]: 89%
- viability, T/C [46]: 75.8%
- viability, T/C (second compound 10 µM, first compound 0.000949 µM): 91%
- viability, T/C (second compound 10 µM, first compound 0.003 µM): 81.9%
- viability, T/C [47]: 85.9%
- viability, T/C [48]: 83.7%
- viability, T/C [49]: 82.7%
- viability, T/C [50]: 71%
